# Test results reported in ChEMBL document CHEMBL6103587, “Anti-tumor effects of artemisinin-based oligomers: From monomer to trimer as a novel drug-enhancing strategy” (Eur J Med Chem, 2025).
# Active and inactive are the calls of the source. The rule behind the calls is not given here.
# Assays:
# [1] = system: MCF7; test: Antitumor activity against human MCF7 cells assessed as reduction in cell viability incubated for 72 hrs by CCK8 assay; assay type: functional, cell-based; settings: MCF7, 72 h
# [2] = system: MCF7; test: Antitumor activity against human MCF7 cells assessed as decrease in number of viable cells at 0.05 to 0.2 uM incubated for 24 hrs by Hoechst 33342 staining based confocal microscopic analysis; assay type: functional, cell-based; settings: dose 0.05-0.2 µM
# [3] = system: MCF7; test: Antitumor activity against human MCF7 cells assessed as decrease in nuclear volume at 0.05 to 0.2 uM incubated for 24 hrs by Hoechst 33342 staining based confocal microscopic analysis; assay type: functional, cell-based; settings: dose 0.05-0.2 µM
# [4] = system: MCF7; test: Antitumor activity against human MCF7 cells assessed as […] at 0.05 to 0.2 uM incubated for 24 hrs by Hoechst 33342 staining based confocal microscopic analysis; assay type: functional, cell-based; settings: dose 0.05-0.2 µM
# [5] = system: MCF7; test: Inhibition of colony formation in human MCF7 cells assessed as reduction in clone formation rate at 0.05 to 0.2 uM measured after 14 days by giemsa staining based dissection microscopic analysis; assay type: functional, cell-based; settings: dose 0.05-0.2 µM, time 14.0 day
# [6] = system: MCF7; test: Inhibition of colony formation in human MCF7 cells assessed as reduction in number of colonies measured after 14 days by giemsa staining based dissection microscopic analysis; assay type: functional, cell-based; settings: dose 0.05-0.2 µM, time 14.0 day
# [7] = system: MCF7; test: Induction of apoptosis in human MCF7 cells assessed as increase in death ratio at 0.05 to 0.2 uM by Annexin V-FITC/PI staining based flow cytometric analysis; assay type: functional, cell-based; settings: dose 0.05-0.2 µM
# [8] = system: Mitochondrial membrane; test: Induction of mitochondrial membrane potential loss in human MCF7 cells assessed as reduction in JC-1 aggregate formation at 0.05 to 0.2 uM incubated for 48 hrs by JC-1 staining based confocal microscopic analysis; assay type: cell membranes; settings: dose 0.05-0.2 µM
# [9] = system: Mitochondrial membrane; test: Induction of mitochondrial membrane potential loss in human MCF7 cells assessed as increase in JC-1 monomer level at 0.05 to 0.2 uM incubated for 48 hrs by JC-1 staining based confocal microscopic analysis; assay type: cell membranes; settings: dose 0.05-0.2 µM
# [10] = system: MCF7; test: Induction of apoptosis in human MCF7 cells assessed as increase in Bax level at 0.05 to 0.2 uM incubated for 48 hrs by Western blot analysis; assay type: functional, cell-based; settings: dose 0.05-0.2 µM
# [11] = system: MCF7; test: Induction of apoptosis in human MCF7 cells assessed as increase in caspase 3 level at 0.05 to 0.2 uM incubated for 48 hrs by Western blot analysis; assay type: functional, cell-based; settings: dose 0.05-0.2 µM
# [12] = system: MCF7; test: Induction of ferroptosis in human MCF7 cells assessed as reduction in GPX4 expression at 0.05 to 0.2 uM incubated for 48 hrs by Western blot analysis; assay type: functional, cell-based; settings: dose 0.05-0.2 µM
# [13] = system: MCF7; test: Induction of apoptosis in human MCF7 cells assessed as viable cells at 0.05 uM by Annexin V-FITC/PI staining based flow cytometric analysis (reference value: 92.01 %); assay type: functional; settings: read-out: Activity
# [14] = system: MCF7; test: Induction of apoptosis in human MCF7 cells assessed as early apoptotic cells at 0.05 uM by Annexin V-FITC/PI staining based flow cytometric analysis (reference value: 5.75 %); assay type: functional
# [15] = system: MCF7; test: Induction of apoptosis in human MCF7 cells assessed as late apoptotic cells at 0.05 uM by Annexin V-FITC/PI staining based flow cytometric analysis (reference value: 1.97 %); assay type: functional
# [16] = system: MCF7; test: Induction of apoptosis in human MCF7 cells assessed as necrotic cells at 0.05 uM by Annexin V-FITC/PI staining based flow cytometric analysis (reference value: 0.27 %); assay type: functional
# [17] = system: MCF7; test: Induction of apoptosis in human MCF7 cells assessed as viable cells at 0.1 uM by Annexin V-FITC/PI staining based flow cytometric analysis (reference value: 92.01 %); assay type: functional; settings: read-out: Activity
# [18] = system: MCF7; test: Induction of apoptosis in human MCF7 cells assessed as early apoptotic cells at 0.1 uM by Annexin V-FITC/PI staining based flow cytometric analysis (reference value: 5.75 %); assay type: functional
# [19] = system: MCF7; test: Induction of apoptosis in human MCF7 cells assessed as late apoptotic cells at 0.1 uM by Annexin V-FITC/PI staining based flow cytometric analysis (reference value: 1.97 %); assay type: functional
# [20] = system: MCF7; test: Induction of apoptosis in human MCF7 cells assessed as necrotic cells at 0.1 uM by Annexin V-FITC/PI staining based flow cytometric analysis (reference value: 0.27 %); assay type: functional
# [21] = system: MCF7; test: Induction of apoptosis in human MCF7 cells assessed as viable cells at 0.2 uM by Annexin V-FITC/PI staining based flow cytometric analysis (reference value: 92.01 %); assay type: functional; settings: read-out: Activity
# [22] = system: MCF7; test: Induction of apoptosis in human MCF7 cells assessed as early apoptotic cells at 0.2 uM by Annexin V-FITC/PI staining based flow cytometric analysis (reference value: 5.75 %); assay type: functional
# [23] = system: MCF7; test: Induction of apoptosis in human MCF7 cells assessed as late apoptotic cells at 0.2 uM by Annexin V-FITC/PI staining based flow cytometric analysis (reference value: 1.97 %); assay type: functional
# [24] = system: MCF7; test: Induction of apoptosis in human MCF7 cells assessed as necrotic cells at 0.2 uM by Annexin V-FITC/PI staining based flow cytometric analysis (reference value: 0.27 %); assay type: functional
smiles,measurement,setting,value
C[C@H]1[C@@H](OCCN(CCO[C@H]2O[C@@H]3O[C@@]4(C)CC[C@H]5[C@H](C)CC[C@@H]([C@H]2C)[C@@]35OO4)CCO[C@H]2O[C@@H]3O[C@@]4(C)CC[C@H]5[C@H](C)CC[C@@H]([C@H]2C)[C@@]35OO4)O[C@@H]2O[C@@]3(C)CC[C@H]4[C@H](C)CC[C@@H]1[C@@]24OO3,IC50,[1],0.09 µM
same,Activity,[2],Active
same,Activity,[3],Active
same,Activity,[4],Active
same,inhibition,[5],Active
same,inhibition,[6],Dose-dependent-effect
same,Activity,[7],Active
same,Activity,[8],Active; Partial Loss Of Membrane Potential Observed
same,Activity,[9],Active; Partial Loss Of Membrane Potential Observed
same,Activity,[10],Active
same,Activity,[11],Active
same,Activity,[12],Active
same,viability at 0.05 µM,[13],76.5%
same,Activity,[14],13.23%
same,Activity,[15],9.54%
same,Activity,[16],0.74%
same,viability at 0.1 µM,[17],74.4%
same,Activity,[18],14.22%
same,Activity,[19],10.27%
same,Activity,[20],1.14%
same,viability at 0.2 µM,[21],62.5%
same,Activity,[22],16.86%
same,Activity,[23],20.21%
same,Activity,[24],0.48%
C[C@H]1[C@@H](OCCN)O[C@@H]2O[C@@]3(C)CC[C@H]4[C@H](C)CC[C@@H]1[C@@]24OO3,IC50,[1],> 10 µM
C[C@H]1[C@@H](OCCNCCO[C@H]2O[C@@H]3O[C@@]4(C)CC[C@H]5[C@H](C)CC[C@@H]([C@H]2C)[C@@]35OO4)O[C@@H]2O[C@@]3(C)CC[C@H]4[C@H](C)CC[C@@H]1[C@@]24OO3,IC50,[1],3.14 µM
Nc1ccn([C@@H]2O[C@H](CO)[C@@H](O)C2(F)F)c(=O)n1 [GEMCITABINE],IC50,[1],4.33 µM
C[C@H]1[C@@H](O)O[C@@H]2O[C@@]3(C)CC[C@H]4[C@H](C)CC[C@@H]1[C@@]24OO3 [ARTENIMOL],IC50,[1],> 10 µM
